From US20110009362A1, “SOLUBILITY-ENHANCED FORMS OF APREPITANT AND PHARMACEUTICAL COMPOSITIONS THEREOF” (DR. REDDY'S LABORATORIES LTD., priority 2008, published 2011)
In brackets after ≈: the same amount, converted by molar mass.

Experiments:
[1] = cited from earlier work
[2] = Saturation solubility of aprepitant forms in water and aqueous HPβCD solutions; format: physicochemical; settings: water, thermodynamic from solid, 1A: pH 7.0
Procedure: Crystalline Form I of aprepitant, amorphous aprepitant, or aprepitant coprecipitate was added to water and to aqueous HPβCD solutions of different concentrations, with stirring until the saturation solubility was reached. […] 1B—pH adjusted to 1.2 using hydrochloric acid. 1C—pH adjusted to 11 with 0.3% sodium bicarbonate solution. Complexes with HPβCD are prepared by adding aprepitant to aqueous solutions of HPβCD and sonicating the solutions to dissolve aprepitant, until saturation is attained.

[3] = Particle size analysis, Malvern Mastersizer; format: physicochemical
From the text: The particle size distribution of a material is generally described in terms of D10, D50, D90, and D[4,3], used routinely to describe the particle sizes or size distributions. It is expressed as volume or weight or surface percentages. Dx as used herein is defined as the size of particles where x percent of the particles have sizes less than the value given. D[4,3] is the volume mean diameter of the particles. D90 for example means that 90% of the particles are below the specified particle size. Particle sizes or particle size distributions of the pharmaceutical compositions of aprepitant of the present invention are determined using any techniques that are known to the person skilled in the art including but not limited to sieve analysis, size analysis by laser light scattering such as using a Malvern particle size analyzer (Malvern Instruments Ltd., Malvern, Worcestershire, United Kingdom) and the like. Pharmaceutical compositions of aprepitant of the present invention are generally fine, uniform and free of agglomerates.
As used herein, the term “mean particle size” refers to the distributions of aprepitant particles, including aprepitant co-precipitate particles, wherein about 50 percent of all particles measured have a particle size less than the defined mean particle size value and about 50 percent of all measurable particles measured have a particle size greater than the defined mean particle size value; this can be identified by the term “D50.” Similarly, a particle size distribution where 90 percent of the particles have sizes less than a specified size is referred to as “D90” and a distribution where 10 percent of particles have sizes less than a specified size is referred to as “D10.”
Particle size analysis was carried out using a Malvern Mastersizer.

| solubility [2] [µg/mL] | Particle Size D10 ([3]; D10) [μm] | Particle Size D50 ([3]; D50) [μm] | Particle Size D90 ([3]; D90) [μm] | SMILES | solubility in acetonitrile ([1]; acetonitrile) | solubility in ethanol ([1]; ethanol) | solubility in isopropyl alcohol ([1]; isopropyl alcohol) | solubility in water ([1]; water) |
| --- | --- | --- | --- | --- | --- | --- | --- | --- |
| – | – | – | – | C[C@@H](O[C@H]1OCCN(Cc2n[nH]c(=O)[nH]2)[C@H]1c1ccc(F)cc1)c1cc(C(F)(F)F)cc(C(F)(F)F)c1 [Aprepitant, 5-[[(2R,3S)-2-[(1R)-1-[3,5-bis(trifluoromethyl)phenyl]ethoxy]-3-(4-fluorophenyl)-4-morpholinyl]methyl]-1,2-dihydro-3H-1,2,4-triazol-3-one] | slightly soluble | sparingly soluble | sparingly soluble | practically insoluble |
| 0.5 (≈ 0.936 µM) | 17.1 | 29.2 | 52.0 | C[C@@H](O[C@H]1OCCN(Cc2n[nH]c(=O)[nH]2)[C@H]1c1ccc(F)cc1)c1cc(C(F)(F)F)cc(C(F)(F)F)c1 [Crystalline aprepitant Form I] | – | – | – | – |
